Patent publication US20250109135A1, “NOVEL ISOINDOLINONE DERIVATIVE COMPOUNDS AS CASPASE INHIBITORS” (INNOVO THERAPEUTICS INC., priority 2022, published 2025)
Where two headings read alike, the source gives them in different places.

What was measured:
[1] = tested on: Secreted IL-1β in THP-1 cells; assay: Interleukin-1β inhibitory activity in human monocytic cells THP-1 (ELISA); assay type: cell-based; conditions: compound 100 nM, PMA-differentiated THP-1, LPS 10 μg/ml then 5 mM ATP, 24 h
Description: Caspase-1 is known as […] (ICE). Activated Caspase-1 is involved in the cleavage of pro-form IL-1β to produce the mature form, which is then secreted to induce inflammation. Therefore, the compounds identified in Experimental example 1 were tested to determine if their Caspase-1 inhibitory activity affected the production of […].
THP-1 (ATCC) cells were cultured in RPMI 1640 (Hyclone) growth medium comprising 10% Fetal bovine serum (FBS, Gibco) and antibiotics (100 U/ml Penicillin, 0.1 mg/ml Streptomycin, Cytiva) under 37° C., 5% CO2 conditions. Cultured THP-1 cells were seeded in growth medium to a concentration of 3×10^5 cells/well in 24-well plates (Celvest) and then treated with 1 μM Phorbol 12-myristate 13-acetate (PMA) (Sigma) for 24 hours to induce differentiation. Differentiated THP-1 were pre treated with 10 μg/ml Lipopolysaccharide (LPS, from E. coli 0111:B4 (InvivoGen)) in serum free RPMI 1640 medium for 24 hours to induce an inflammatory response. After removal of LPS, the compounds were pretreated for 1 h at a concentration of 100 nM using the same medium, followed by the addition of 5 mM ATP (InvivoGen) and incubation for 24 h in an incubator. The treated medium was collected and centrifuged, and IL-1β was quantified using an Enzyme linked immunoassay kit (ELISA kit, R&D system), and absorbance was measured at 450 nm using a CLARIOstar Plus spectrometer. Inhibitory activity was denoted as a if it was 50% or more, b if it was 30% or more but less than 50%, c if it was 10% or more but less than 30%, and d if it was less than 10%.

[2] = tested on: Jurkat cells; assay: Apoptosis inhibition activity in human T-lymphocyte cells Jurkat (anti-FAS antibody, intracellular ATP); assay type: cell-based; conditions: compound 50 nM, 1 μg/ml anti-FAS antibody 24 h, ATP luminescence
Description: To evaluate the effect of the compound of the present invention on apoptosis, Jurkat (ATCC) cells were treated with anti-FAS antibody CH-11 (Merck) to induce apoptosis via the Fas (CD95) receptor, which was assessed by the amount of intracellular ATP.
Jurkat cells were cultured in RPMI 1640 growth medium comprising 10% FBS and antibiotics (100 U/ml Penicillin, 0.1 mg/ml Streptomycin) under 37° C., 5% CO2 conditions. Cultured cells were seeded in growth medium to a concentration of 8×10^4 cells/well in 96-well plates (SPL), pretreated with compound at a concentration of 50 nM for 1 hour, and then treated with 1 μg/ml anti-FAS antibody for 24 hours in an incubator. After 24 h, an ATP lite Luminescence assay kit (PerkinElmer) was used to measure ATP and luminescence was measured at 580 nm using a CLARIOstar Plus spectrometer. If the inhibitory activity is 30% or more, it is denoted as a′, if it is 20% or more but less than 30%, it is denoted as b′, if it is 10% or more but less than 20%, it is denoted as c′, and if it is less than 10%, it is denoted as d′.

[3] = target: T1, recombinant human Caspase-1 (Homo sapiens, UniProt P29466); assay: Caspase-1 inhibitory activity, fluorescent substrate Ac-YVAD-AFC; assay type: biochemical
T1 construct: purchased Enzo life science
T1 sequence (P29466 120-297 limits assumed): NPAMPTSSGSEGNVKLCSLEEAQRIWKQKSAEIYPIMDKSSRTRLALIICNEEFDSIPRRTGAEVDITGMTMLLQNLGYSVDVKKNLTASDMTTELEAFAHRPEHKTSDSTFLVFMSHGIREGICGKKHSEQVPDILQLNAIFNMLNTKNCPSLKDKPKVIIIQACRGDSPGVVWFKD
T1 sequence (P29466 317-404 limits assumed): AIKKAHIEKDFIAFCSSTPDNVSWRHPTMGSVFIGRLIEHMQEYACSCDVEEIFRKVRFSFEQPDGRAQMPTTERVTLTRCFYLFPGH
Description: To determine the Caspase-1 inhibitory activity of the compounds of the present invention prepared in Example, Caspase-1 activity was measured using a substrate with a fluorescent dye attached to it. […] The compound was dissolved in DMSO and stored at −20° C. Enzymatic reactions were carried out in a buffer comprising 50 mM HEPES (pH 8.0), 50 mM KCl, 200 mM NaCl, 10 mM DTT, 0.1% CHAPS (w/v). Enzyme inactivation was measured in the presence of different concentrations of the compound using the fluorescent substrate N-Acetyl-Tyr-Val-Ala-Asp-7-amido-4-trifluoromethylcoumarin (Ac-YVAD-AFC) (Sigma) at a concentration of 50 μM and 1 unit of recombinant human Caspase-1 (Enzo life science). A CLARIOstar Plus spectrometer (BMG Labtech) was used to measure the reaction rate as a function of time in the 400/505 nm (Ex/Em) wavelength band. […] If kobs/[I] is 20 or more, it is denoted as A, if it is 10 or more but less than 20, it is denoted as B, if it is 1 or more but less than 10, it is denoted as C, and if it is less than 1, it is denoted as D.
In the above equation, At means the enzyme reaction rate at time t (min), and Amax means the maximum reaction rate.

[4] = pH 8, read-out: kobs/[I] Caspase-1
[5] = pH 8, 1 unit recombinant human Caspase-1, 50 μM Ac-YVAD-AFC, read-out: kobs/[I] Caspase-1

For `CC(C)[C@@H](C(=O)NC(CC(=O)O)C(=O)CF)N1Cc2ccc(-c3ccc4[nH]c(=O)[nH]c4c3)cc2C1=O` (stereo partly drawn) [Compound 45, 5-fluoro-3-((S)-3-methyl-2-(1-oxo-6-(2-oxo-2,3-dihydro-1H-benzo[d]imidazol-5-yl)isoindolin-2-yl)butanamido)-4-oxopentanoic acid], the inhibition at 0.1 µM [1] was 30 to 50%, the inhibition at 0.05 µM [2] was 10 to 20% and the kinact/KI [3, 4] was 0.0167 to 0.167 M⁻¹ s⁻¹.
`CCC(C(=O)NC(CC(=O)O)C(=O)CF)N1Cc2ccc(-c3ccc(C(C)=O)cc3)cc2C1=O` (stereo not drawn) [Compound 18, 3-(2-(6-(4-acetylphenyl)-1-oxoisoindolin-2-yl)butanamido)-5-fluoro-4-oxopentanoic acid] gave an inhibition at 0.1 µM [1] of at least 50%, an inhibition at 0.05 µM [2] of 10 to 20% and a kinact/KI [3, 5] of 0.0167 to 0.167 M⁻¹ s⁻¹.
Work on `CC[C@@H](C(=O)NC(CC(=O)O)C(=O)CF)N1Cc2ccc(-c3ccc4c(c3)OCCO4)cc2C1=O` (stereo partly drawn) [Compound 55, 3-((S)-2-(6-(2,3-dihydrobenzo[b][1,4]dioxin-6-yl)-1-oxoisoindolin-2-yl)butanamido)-5-fluoro-4-oxopentanoic acid] yielded an inhibition at 0.1 µM [1] of 30 to 50%, an inhibition at 0.05 µM [2] of at least 30% and a kinact/KI [3, 5] of 0.0167 to 0.167 M⁻¹ s⁻¹.
For `CCC(C(=O)NC(CC(=O)O)C(=O)CF)N1Cc2ccc(-c3ccc4[nH]c(=O)[nH]c4c3)cc2C1=O` (stereo not drawn) [Compound 8, 5-fluoro-4-oxo-3-(2-(1-oxo-6-(2-oxo-2,3-dihydro-1H-benzo[d]imidazol-5-yl)isoindolin-2-yl)butanamido)pentanoic acid], the inhibition at 0.1 µM [1] was at least 50%, the inhibition at 0.05 µM [2] was 10 to 20% and the kinact/KI [3, 5] was 0.0167 to 0.167 M⁻¹ s⁻¹.
`CC[C@@H](C(=O)N[C@H](CC(=O)O)C(=O)COc1c(F)c(F)cc(F)c1F)N1Cc2ccc(-c3ccc4c(c3)OCCO4)cc2C1=O` [Compound 54, (R)-3-((S)-2-(6-(2,3-dihydrobenzo[b][1,4]dioxin-6-yl)-1-oxoisoindolin-2-yl)butanamido)-4-oxo-5-(2,3,5,6-tetrafluorophenoxy)pentanoic acid] gave an inhibition at 0.1 µM [1] of 30 to 50%, an inhibition at 0.05 µM [2] of under 10% and a kinact/KI [3, 5] of 0.0167 to 0.167 M⁻¹ s⁻¹.
For `CC[C@@H](C(=O)N[C@@H](CC(=O)O)C(=O)COc1c(F)c(F)cc(F)c1F)N1Cc2ccc(-c3ccc4c(c3)OCCO4)cc2C1=O` [Compound 51, (S)-3-((S)-2-(6-(2,3-di hydrobenzo[b][1,4]dioxin-6-yl)-1-oxoisoindolin-2-yl)butanamido)-4-oxo-5-(2,3,5,6-tetrafluorophenoxy)pentanoic], the inhibition at 0.1 µM [1] was 30 to 50%, the inhibition at 0.05 µM [2] was 20 to 30% and the kinact/KI [3, 5] was 0.167 to 0.333 M⁻¹ s⁻¹.
In the case of `CCC(C(=O)NC(CC(=O)O)C(=O)CF)N1Cc2ccc(-c3ccc(OC)nc3)cc2C1=O` (stereo not drawn) [Compound 13, 5-fluoro-3-(2-(6-(6-methoxypyridin-3-yl)-1-oxoisoindolin-2-yl)butanamido)-4-oxopentanoic acid], the inhibition at 0.1 µM [1] is reported as at least 50%, the inhibition at 0.05 µM [2] is reported as 20 to 30% and the kinact/KI [3, 5] is reported as 0.0167 to 0.167 M⁻¹ s⁻¹.
In the case of `CCC(C(=O)NC(CC(=O)O)C(=O)CF)N1Cc2ccc(-c3cccc4ccccc34)cc2C1=O` (stereo not drawn) [Compound 2, 5-fluoro-3-(2-(6-(naphthalen-1-yl)-1-oxoisoindolin-2-yl)butanamido)-4-oxopentanoic acid], the inhibition at 0.1 µM [1] is reported as 30 to 50%, the inhibition at 0.05 µM [2] is reported as 10 to 20% and the kinact/KI [3, 5] is reported as 0.0167 to 0.167 M⁻¹ s⁻¹.
`CCC(C(=O)NC(CC(=O)O)C(=O)CF)N1Cc2ccc(N3CCn4cc(C(F)(F)F)nc4C3)cc2C1=O` (stereo not drawn) [Compound 10, 5-fluoro-4-oxo-3-(2-(1-oxo-6-(2-(trifluoromethyl)-5,6-dihydroimidazo[1,2-a]pyrazin-7(8H)-yl)isoindolin-2-yl)butanamido)pentanoic acid] showed an inhibition at 0.1 µM [1] of 30 to 50%, an inhibition at 0.05 µM [2] of 10 to 20% and a kinact/KI [3, 5] of 0.0167 to 0.167 M⁻¹ s⁻¹.
`CCC(C(=O)NC(CC(=O)O)C(=O)CF)N1Cc2ccc(Br)cc2C1=O` (stereo not drawn) [Compound 9, 3-(2-(6-bromo-1-oxoisoindolin-2-yl)butanamido)-5-fluoro-4-oxopentanoic acid] showed an inhibition at 0.1 µM [1] of 30 to 50%, an inhibition at 0.05 µM [2] of at least 30% and a kinact/KI [3, 5] of 0.0167 to 0.167 M⁻¹ s⁻¹.
`O=C(O)CC(NC(=O)CN1Cc2ccc(-c3coc4ccccc34)cc2C1=O)C(=O)CF` (stereo not drawn) [Compound 39, 3-(2-(6-(benzofuran-3-yl)-1-oxoisoindolin-2-yl)acetamido)-5-fluoro-4-oxopentanoic acid] was tested, and the inhibition at 0.1 µM [1] was under 10%, the inhibition at 0.05 µM [2] was under 10% and the kinact/KI [3, 4] was 0.0167 to 0.167 M⁻¹ s⁻¹.
For `CCC(C(=O)NC(CC(=O)O)C(=O)CF)N1Cc2ccc(-c3ccc4occc4c3)cc2C1=O` (stereo not drawn) [Compound 26, 3-(2-(6-(benzofuran-5-yl)-1-oxoisoindolin-2-yl)butanamido)-5-fluoro-4-oxopentanoic acid], the inhibition at 0.1 µM [1] was 30 to 50%, the inhibition at 0.05 µM [2] was at least 30% and the kinact/KI [3, 5] was 0.0167 to 0.167 M⁻¹ s⁻¹.
With `CCC(C(=O)NC(CC(=O)O)C(=O)CF)N1Cc2ccc(-c3coc4ccccc34)cc2C1=O` (stereo not drawn) [Compound 22, 3-(2-(6-(benzofuran-3-yl)-1-oxoisoindolin-2-yl)butanamido)-5-fluoro-4-oxopentanoic acid] the inhibition at 0.1 µM [1] was 30 to 50%, the inhibition at 0.05 µM [2] was 10 to 20% and the kinact/KI [3, 5] was over 0.333 M⁻¹ s⁻¹.
`CC[C@@H](C(=O)NC(CC(=O)O)C(=O)CF)N1Cc2cc(-c3ccc4c(c3)OCCO4)ccc2C1=O` (stereo partly drawn) [Compound 58, 3-((S)-2-(5-(2,3-dihydrobenzo[b][1,4]dioxin-6-yl)-1-oxoisoindolin-2-yl)butanamido)-5-fluoro-4-oxopentanoic acid] gave an inhibition at 0.1 µM [1] of 10 to 30%, an inhibition at 0.05 µM [2] of 10 to 20% and a kinact/KI [3, 4] of 0.0167 to 0.167 M⁻¹ s⁻¹.
With `CCC(C(=O)NC(CC(=O)O)C(=O)CF)N1Cc2ccc(-c3cn[nH]c3)cc2C1=O` (stereo not drawn) [Compound 5, 5-fluoro-4-oxo-3-(2-(1-oxo-6-(1H-pyrazol-4-yl)isoindolin-2-yl)butanamido)pentanoic acid] the inhibition at 0.1 µM [1] was 30 to 50%, the inhibition at 0.05 µM [2] was 10 to 20% and the kinact/KI [3, 5] was 0.0167 to 0.167 M⁻¹ s⁻¹.
Molecule `CCC(C(=O)NC(CC(=O)O)C(=O)CF)N1Cc2ccc(N3CCN(S(C)(=O)=O)CC3)cc2C1=O` (stereo not drawn) [Compound 6, 5-fluoro-3-(2-(6-(4-(methylsulfonyl)piperazin-1-yl)-1-oxoisoindolin-2-yl)butanamido)-4-oxopentanoic acid] has an inhibition at 0.1 µM [1] of 10 to 30%, an inhibition at 0.05 µM [2] of 10 to 20% and a kinact/KI [3, 5] of under 0.0167 M⁻¹ s⁻¹.
`CCC(C(=O)NC(CC(=O)O)C(=O)CF)N1Cc2ccc(N3CCCC3)cc2C1=O` (stereo not drawn) [Compound 3, 5-fluoro-4-oxo-3-(2-(1-oxo-6-(pyrrolidin-1-yl)isoindolin-2-yl)butanamido)pentanoic acid] gave an inhibition at 0.1 µM [1] of 30 to 50%, an inhibition at 0.05 µM [2] of 20 to 30% and a kinact/KI [3, 5] of 0.0167 to 0.167 M⁻¹ s⁻¹.
`O=C(O)CC(NC(=O)CN1Cc2ccc(-c3ccc4occc4c3)cc2C1=O)C(=O)CF` (stereo not drawn) [Compound 41, 3-(2-(6-(benzofuran-5-yl)-1-oxoisoindolin-2-yl)acetamido)-5-fluoro-4-oxopentanoic acid] showed an inhibition at 0.1 µM [1] of under 10%, an inhibition at 0.05 µM [2] of under 10% and a kinact/KI [3, 4] of 0.0167 to 0.167 M⁻¹ s⁻¹.
